In brackets after ≈: the same amount, converted by molar mass. Marks after values point to notes of the source that are not given here.
Tests used:
Assay type in all cases: physicochemical
[1] = Measurement of the approximate solubility (solvent added in steps to the solid); conditions: 23 °C, read-out: Solubility
Description: To determine the approximate solubility at room temperature, the solvent was added in steps to the solid material. After every addition, the sample was well stirred. The addition of solvent was continued until complete dissolution or until 15 ml of solvent was added.

[2] = Water solubility of solid forms A and B′ (suspension shaken, filtered, HPLC; residue by Raman); conditions: for Solid residue: Raman, rough estimate
Description: During the following experiments: suspension equilibration, precipitation experiment, recrystallization, relative stability experiments and water solubility experiment, a filtration step was conducted. Centrifugal filter devices: Ultrafree-CL (0.22 la,m), Millipore; Centrifuge type or Eppendorf 5804R were used at a temperature of 22° C. and centrifugation program of 2 min 3000 rpm.
HPLC was used to analyse the purity of S-1. HP 1090M HPLC machine was used with the following conditions: • Column: Symmetry Shield RP18, 3.9×150 mm, 5 μm • Column temperature: 35° C. • Injection volume: 10 μL • Solvent: acetonitrile+water 1:1 v/v • Mobile phase A: 0.1% TFA-water • Mobile phase B: 0.1% TFA-acetonitrile • Flow rate: 1 mL/min. • Detection: UV at 271 nm • Run time: 21 min. • Retention time (S-1): 10.7 min.
Suspensions of the solid forms (25 or 50 mg in 3.5 or 7.0 ml bidistilled water) were shaken (800 rpm) and filtered after 0.5 h, 1.5 h, 4 h and 20 h. After filtration the solid residue was checked by Raman spectroscopy and the concentration in the clear solution was determined by HPLC.

[3] = Relative stability of polymorphic forms under humid conditions (storage, DSC)
Description: (§1) Thermal analysis was carried out with a Perkin Elmer DSC7 with the following experimental conditions: 3 to 6 mg sample mass, closed gold sample pan, temperature range −50° C. to 120° C., heating rate 20 K/min. The samples were weighed in air or dry N2 atmosphere. Additional thermal analysis was conducted using a TA Instruments Q1000 DSC using hermetic aluminum pans under various conditions.
Polymorph A stays stable in its A form for at least 7 days under storage conditions of ambient temperature/75% RH (Relative Humidity), ambient temperature/100% RH, 30° C./75% RH and 50° C./0% RH.
In fact, polymorph D in the presence of moisture acts as the seed for the crystallization process and drives the transformation of polymorphs A and B′ into D, similar to its role in seeding the A to D crystallization in dry conditions. […] The amount of polymorph D initially added to the sample is very small that it isn't detectable by the DSC with heating rate of 10° C./min. […] The transformation process is speeded up in FIG. 17G (b) by storing the sample in water at 50° C. […] Further work has shown that the A and B′ convert to D in the presence of moisture at lower temperatures also albeit at slower rates.

[4] = Dynamic vapor sorption (DVS); conditions: 25° C.
Description: Dynamic vapor sorption quantification relates the mass of water absorbed and subsequently desorbed during the crystallization process. In order to define whether batch P1, P2 and P4 are hydrated polymorphs, DVS measurements were conducted (FIG. 9). A sample (13 to 14 mg) was placed on a Pt pan, and the sample was allowed to equilibrate at 25° C./50% r.h. before starting a pre-defined humidity program (1.0 hours 50%, from 50% r.h. to 95% r.h.: 5% r.h./hour, 10 hours at 95% r.h., from 95% r.h. to 0% r.h.: 5% r.h./hour, 10 hours at 0% r.h., from 0% r.h. to 50% r.h.: 5% r.h./hour, 1 hours at 50% r.h.

[5] = Suspension equilibration experiments; conditions: stirred 20 h/23° C.
Description: Suspension equilibration experiments were carried out with 81-128 mg of the compound. The suspensions were stirred with a magnetic stirrer. The samples obtained after filtration were air dried at ambient temperature for a short time only to prevent possible desolvation of labile hydrates or solvates.

[6] = Water vapor sorption (humidity chamber) and aqueous suspension, form produced; conditions: for form B′ formed: powder stored in humidified chamber 96% r.h./23° C. (room temperature), 11 weeks, Raman and DSC
Description: The compound was stored in a glass tube under 96% r.h. (relative humidity) in a humidity chamber at room temperature. After different time of storage Raman measurements were conducted using hermetically closed glass tubes.

[7] = Relative stability of polymorphic forms under dry conditions (heating, micronization)
Description: as §1
Thus forms A and B″ can be considered to be practically stable at ambient temperature. […] Micronization of the polymorph A particles under dry conditions also produced ˜25% conversion to B″.

In the case of `C[C@](O)(COc1ccc(C#N)cc1)C(=O)Nc1ccc(C#N)c(C(F)(F)F)c1` [Form A, (S)-N-(4-cyano-3-(trifluoromethyl)phenyl)-3-(4-cyanophenoxy)-2-hydroxy-2-methylpropanamide], the solubility ([1]; 1,4-dioxane, organic solvent or mixture, thermodynamic from solid, 1,4-dioxane, 23° C.) is reported as over 200 mg/mL, the solubility ([1]; TBME, organic solvent or mixture, thermodynamic from solid, TBME, 23° C.) is reported as over 200 mg/mL and the solubility ([1]; THF, organic solvent or mixture, thermodynamic from solid, THF, 23° C.) is reported as over 200 mg/mL. For the same compound, the solubility ([1]; THF/n-heptane 1:1 v/v, organic solvent or mixture, thermodynamic from solid, THF/n-heptane 1:1 v/v, 23° C.) was over 200 mg/mL, the solubility ([1]; THF/n-heptane 1:3 v/v, organic solvent or mixture, thermodynamic from solid, THF/n-heptane 1:3 v/v, 23° C.) was 65 mg/mL (≈ 167 mM) and the solubility ([1]; acetic acid, organic solvent or mixture, thermodynamic from solid, acetic acid, 23° C.) was over 200 mg/mL. The solubility ([1]; acetone, organic solvent or mixture, thermodynamic from solid, acetone, 23° C.) was over 200 mg/mL, the solubility ([1]; acetone/n-heptane 1:1 v/v, organic solvent or mixture, thermodynamic from solid, acetone/n-heptane 1:1 v/v, 23° C.) was over 200 mg/mL and the solubility ([1]; acetone/n-heptane 1:3 v/v, organic solvent or mixture, thermodynamic from solid, acetone/n-heptane 1:3 v/v, 23° C.) was 90 mg/mL (≈ 231 mM). The solubility ([1]; acetonitrile, organic solvent or mixture, thermodynamic from solid, acetonitrile, 23° C.) was over 200 mg/mL, the solubility ([1]; acetonitrile/toluene 1:1 v/v, organic solvent or mixture, thermodynamic from solid, acetonitrile/toluene 1:1 v/v, 23° C.) was over 200 mg/mL and the solubility ([1]; acetonitrile/toluene 1:3 v/v, organic solvent or mixture, thermodynamic from solid, acetonitrile/toluene 1:3 v/v, 23° C.) was 170 mg/mL (≈ 437 mM). It also gave a solubility ([1]; dichloromethane, organic solvent or mixture, thermodynamic from solid, dichloromethane, 23° C.) of over 200 mg/mL, a solubility ([1]; ethanol, organic solvent or mixture, thermodynamic from solid, ethanol, 23° C.) of over 200 mg/mL and a solubility ([1]; ethanol/n-heptane 1:1 v/v, organic solvent or mixture, thermodynamic from solid, ethanol/n-heptane 1:1 v/v, 23° C.) of 180 mg/mL (≈ 462 mM). It also gave a solubility ([1]; ethanol/n-heptane 1:3 v/v, organic solvent or mixture, thermodynamic from solid, ethanol/n-heptane 1:3 v/v, 23° C.) of 50 mg/mL (≈ 128 mM), a solubility ([1]; ethanol/water 1:1 v/v, aqueous with cosolvent or surfactant or cyclodextrin, thermodynamic from solid, ethanol/water 1:1 v/v, 23° C.) of 50 mg/mL (≈ 128 mM) and a solubility ([1]; ethanol/water 1:3 v/v, aqueous with cosolvent or surfactant or cyclodextrin, thermodynamic from solid, ethanol/water 1:3 v/v, 23° C.) of under 5 mg/mL. For the same compound, the solubility ([1]; ethanol/water 3:1 v/v, aqueous with cosolvent or surfactant or cyclodextrin, thermodynamic from solid, ethanol/water 3:1 v/v, 23° C.) was over 200 mg/mL, the solubility ([1]; ethyl acetate, organic solvent or mixture, thermodynamic from solid, ethyl acetate, 23° C.) was over 200 mg/mL and the solubility ([1]; ethyl acetate/n-heptane 1:1 v/v, organic solvent or mixture, thermodynamic from solid, ethyl acetate/n-heptane 1:1 v/v, 23° C.) was 65 mg/mL (≈ 167 mM). It also gave a solubility ([1]; ethyl acetate/n-heptane 1:2 v/v, organic solvent or mixture, thermodynamic from solid, ethyl acetate/n-heptane 1:2 v/v, 23° C. (B′: solid form transformation into solid form A)) of 9 mg/mL (≈ 23.1 mM), a solubility ([1]; ethyl acetate/n-heptane 1:3 v/v, organic solvent or mixture, thermodynamic from solid, ethyl acetate/n-heptane 1:3 v/v, 23° C. (turbid solution)) of under 5 mg/mL and a solubility ([1]; ethyl acetate/n-pentane 1:2 v/v, organic solvent or mixture, thermodynamic from solid, ethyl acetate/n-pentane 1:2 v/v, 23° C.) of 13 mg/mL (≈ 33.4 mM). The solubility ([1]; ethyl formate/n-pentane 1:2 v/v, organic solvent or mixture, thermodynamic from solid, ethyl formate/n-pentane 1:2 v/v, 23° C.) was 12 mg/mL (≈ 30.8 mM), the solubility ([1]; methyl acetate/n-pentane 1:2 v/v, organic solvent or mixture, thermodynamic from solid, methyl acetate/n-pentane 1:2 v/v, 23° C.) was 8 mg/mL (≈ 20.5 mM) and the solubility ([1]; toluene, organic solvent or mixture, thermodynamic from solid, toluene, 23° C. (turbid solution)) was under 6 mg/mL. For the same compound, the solubility in water ([2]; 22° C., stated as embodiment) was 0.023 to 0.027 mg/mL, the Solid residue ([2]; water, 22° C., 0.5 h) was “A + B′ (approx. 95% + 5%) ^c)” and the Solid residue ([2]; water, 22° C., 1.5 h) was “A + B′ (approx. 90% + 10%) ^c)”. For the same compound, the Solid residue ([2]; water, 22° C., 4.0 h) was “A + B′ (approx. 85% + 15%) ^c)”, the Solid residue ([2]; water, 22° C., 20 h) was “A + B′ (approx. 75% + 25%) ^c)” and the “pH of the solution” value ([2]; water, 22° C., 20 h suspension equilibration) was “^d) pH of the solution: 8.7”. It also gave a solubility ([2]; water, 22° C., suspension equilibration time 0.5 h, mean of two measurements (±standard deviation)) of 21.0 ± 3.9 mg/1000 ml, a solubility ([2]; water, 22° C., suspension equilibration time 1.5 h, mean of two measurements (±standard deviation)) of 24.0 ± 1.4 mg/1000 ml and a solubility ([2]; water, 22° C., suspension equilibration time 1.5 h, mean of two measurements (±standard deviation), listed as A) of 24.0±1.4 mg/1000 ml. For the same compound, the solubility ([2]; water, 22° C., suspension equilibration time 4.0 h, mean of two measurements (±standard deviation)) was 27.6 ± 1.5 mg/1000 ml, the solubility ([2]; water, 22° C., suspension equilibration time 20 h, mean of two measurements (±standard deviation)) was 24.5 ± 1.7 ^d) mg/1000 ml and the solubility ([2]; water, 22 °C, water, thermodynamic from solid, stated as embodiment, read-out: solubility in water) was 0.02 to 0.03 mg/mL (≈ 0.0514 to 0.0771 mM). The “solid form change, seeded with a small amount of D” value (“solid form change, seeded” for short) ([3]; 50° C./75% RH, after 24 hours) was “most of the polymorph form A has been converted to B′ but a small amount of sample has also been converted to D”, the “time stable in its A form on storage” value ([3]; each of ambient temperature/75% RH, ambient temperature/100% RH, 30° C./75% RH and 50° C./0% RH) was “at least 7 days” and the “stable through (storage time)” value ([3]; stored at 25° C./60% RH) was at least 36 months. For the same compound, the “stable through (storage time)” value ([3]; stored at 30° C./65% RH) was at least 9 months, the “solid form change on storage” value ([3]; stored at 40° C./75% RH) was “converts to B′ when stored at 40° C./75% RH within one month” and the “solid form change on storage” value ([3]; stored at 40° C./75% RH, listed as polymorph A) was “converted to B′ within one month”. For the same compound, the “solid form change on storage” value ([3]; stored at 50° C./75% RH) was “converts to B′”, the “solid form change, seeded” value ([3]; stored in water at 50° C., after 6 hours) was “converted to both B′ and D” and the “solid form change, seeded” value ([3]; stored in water at 50° C., by 24 hours) was “predominantly in form D”. The “maximum water content at 93% r.h.” value [4] was 1.5%, the Form produced ([5]; ethyl formate + n-pentane 1:2 v/v 112/2.0 mg/ml) was “no transformation of solid form A” and the Form produced ([5]; methyl acetate + n-pentane 1:2 v/v 126/2.0 mg/ml) was “no transformation of solid form A”. The “form B′ formed” value ([6]; listed as A) was about 20% form B′, the “form B′ formed” value ([6]; listed as form A) was “approx. 20%” and the Form produced ([6]; powder stored in humidified chamber 96% r.h./23° C., 4 weeks) was “A + small”. The Form produced ([6]; powder stored in humidified chamber 96% r.h./23° C., 9 weeks) was “A + form B′”, the Form produced ([6]; suspension in water 111/5.0 mg/ml, sonication 5 min., stirred 19 h/37° C., filtered & air dried) was “B′” and the Form produced ([6]; water + 5% acetic acid v/v 105/2.0 mg/ml, stirred 17 h/40° C., cooled to R.T. and removed solution) was “B′”. The Form produced ([6]; water + 5% ethanol v/v 123/2.1 mg/ml, stirred 3 h/83° C., cooled to 47° C. within 1.5 h, filtered & air dried) was “B′”, the “solid form change on heating” value ([7]; heating to 110° C. in the presence of D) was “rearrange into D” and the “conversion to B″” value ([7]; micronization of the particles under dry conditions) was about 25%.

Source: US20240326697A1, “SOLID FORMS OF SELECTIVE ANDROGEN RECEPTOR MODULATORS” (priority 2007, published 2024)
